Some test systems named below: OVCAR-8; CAKI-1; A549; HT-29; RPMI-8226; HCT-15; U-251; Malme-3M; MOLT-4; SN12C; UO-31; NCI-H226; NCI-H522; HL-60; SW-620; CCRF-CEM; A498.
What all share (test): NCI-60 cell line screen, 48 h

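Each compound was tested at five concentrations against cells in 96-well plates for 48 hours. Here, GI50 denotes the concentration required for 50% inhibition of growth.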 Active and inactive are the calls of the source. No stated cut-off is given here; in the data, active = GI50 up to about 1.1 µM and inactive = higher.

On to `CCCN(CCC)C(=O)Cc1c2n(c3ccccc13)Cc1ccccc1-2`, for which the GI50 in the experiment on OVCAR-8 was > 100 µM (inactive); in the experiment on CAKI-1, 30.1 µM (inactive); in the experiment on A549, 27.9 µM (inactive); in the experiment on HT-29, 61.8 µM (inactive); with RPMI-8226, 59 µM (inactive); in the experiment on HCT-15, more than 100 µM. The GI50 with U-251 is > 100 µM (inactive); in the experiment with Malme-3M it was 58.9 µM (inactive); in the experiment with MOLT-4, > 100 µM (inactive); in the experiment with SN12C it was > 100 µM (inactive); in the experiment with UO-31 it was 35.1 µM (inactive); in the experiment on NCI-H226 it was > 100 µM (inactive). The GI50 is 40 µM (inactive) with NCI-H522, 28.8 µM (inactive) in the experiment on HL-60, > 100 µM (inactive) with SW-620 and > 100 µM (inactive) in the experiment on CCRF-CEM.

Turning to `C/C=N\N1C(=O)c2ccccc2C1=O`, the GI50 with OVCAR-8, in the experiment with CAKI-1, with A549, with HT-29, in the experiment on A498 and in the experiment with RPMI-8226 was > 100 µM (inactive) in each case. Moreover, the GI50 in the experiment with HCT-15 was more than 100 µM; in the experiment on Malme-3M it was > 100 µM (inactive); in the experiment with MOLT-4 it was > 100 µM (inactive); in the experiment on SN12C, > 100 µM (inactive); with UO-31, > 100 µM (inactive); in the experiment with NCI-H226, > 100 µM (inactive). Besides, the GI50 in the experiment on HL-60, in the experiment with SW-620 and in the experiment with CCRF-CEM was > 100 µM (inactive) each time.

Turning to `O=C(O)[C@H](NS(=O)(=O)c1ccc(F)cc1)c1ccccc1`, the GI50 was > 100 µM (inactive) in the experiment on OVCAR-8; > 100 µM (inactive) in the experiment on CAKI-1; > 100 µM (inactive) in the experiment on A549; > 100 µM (inactive) with HT-29; > 100 µM (inactive) with RPMI-8226; more than 100 µM in the experiment with HCT-15. Also, the GI50 in the experiment on U-251, in the experiment with Malme-3M, in the experiment on MOLT-4, with SN12C, with UO-31 and with NCI-H226 was > 100 µM (inactive) in each case. The GI50 in the experiment on NCI-H522, with SW-620 and in the experiment on CCRF-CEM was > 100 µM (inactive) in each case.

For `Cc1cc2nc3c(=O)[nH]c(=O)nc-3n(CC(O)C(O)C(O)CO)c2cc1N` (centres undefined), the GI50 is > 100 µM (inactive) with OVCAR-8; > 100 µM (inactive) in the experiment with A549; > 100 µM (inactive) in the experiment on HT-29; > 100 µM (inactive) with A498; > 100 µM (inactive) in the experiment with RPMI-8226; more than 100 µM in the experiment with HCT-15. Further, the GI50 in the experiment with MOLT-4, in the experiment on SN12C, with UO-31, in the experiment with NCI-H226, with HL-60 and in the experiment with SW-620 was > 100 µM (inactive) throughout. Further, in the experiment with CCRF-CEM, the GI50 was > 100 µM (inactive).

Consider `NNC(=O)N/N=C(/CC1(O)C(=O)Nc2ccc(Br)cc21)c1ccccc1` (centres undefined), for which the GI50 in the experiment on CAKI-1 is 30.3 µM (inactive); in the experiment with A549, 50 µM (inactive); in the experiment on HT-29, 30.6 µM (inactive); with RPMI-8226, 48.4 µM (inactive); with HCT-15, 61.1 µM; in the experiment on U-251, > 10 µM (inactive). The GI50 in the experiment on Malme-3M is 33.9 µM (inactive); in the experiment with MOLT-4 it was 16.7 µM (inactive); with SN12C it was 29.2 µM (inactive); in the experiment on UO-31, 12.5 µM (inactive); in the experiment on NCI-H226 it was 82.6 µM (inactive); in the experiment on NCI-H522, 18.8 µM (inactive). The results for the GI50 in the experiment on HL-60, with SW-620 and with CCRF-CEM were 21.9 µM (inactive), 50 µM (inactive) and 27.1 µM (inactive), respectively.

With `N=C(N)NS(=O)(=O)c1ccc(NC(=O)c2cccc3cc4ccccc4nc23)cc1`, the GI50 in the experiment with OVCAR-8 was 14.5 µM (inactive); with CAKI-1, > 100 µM (inactive); with A549, > 100 µM (inactive); with HT-29, > 100 µM (inactive); in the experiment on A498, > 100 µM (inactive); in the experiment with RPMI-8226, > 100 µM (inactive). The GI50 in the experiment on HCT-15 was more than 100 µM; in the experiment with U-251, 87.7 µM (inactive); in the experiment with Malme-3M, > 100 µM (inactive); in the experiment with MOLT-4, 5.55 µM (inactive); in the experiment on SN12C it was > 100 µM (inactive); with UO-31, > 100 µM (inactive). Also, the GI50 in the experiment with NCI-H226 was 9.75 µM (inactive); in the experiment with NCI-H522, 13.5 µM (inactive); in the experiment on SW-620, 66.8 µM (inactive); in the experiment with CCRF-CEM, 6.56 µM (inactive).

For the molecule `CC(C)=CC(=O)CC(=O)C(=O)Nc1ccc(C)c(C)c1`, the GI50 was > 100 µM (inactive) in the experiment with CAKI-1; > 100 µM (inactive) in the experiment on A549; > 100 µM (inactive) with HT-29; > 100 µM (inactive) with RPMI-8226; more than 100 µM in the experiment with HCT-15; > 100 µM (inactive) in the experiment with U-251. In addition, the GI50 with Malme-3M, in the experiment on MOLT-4, in the experiment on SN12C, with UO-31, in the experiment with NCI-H226 and with NCI-H522 was > 100 µM (inactive) throughout. Moreover, the GI50 in the experiment with HL-60, in the experiment with SW-620 and with CCRF-CEM was > 100 µM (inactive) in each case.

On to `C=C[Si](C)(C)COC(=O)/C(C#N)=C/C=C/c1ccccc1`, for which the GI50 in the experiment on OVCAR-8 is > 100 µM (inactive); with A549 it was > 100 µM (inactive); in the experiment on HT-29 it was > 100 µM (inactive); in the experiment with RPMI-8226, 37.2 µM (inactive); with HCT-15, 78.2 µM; in the experiment with U-251, > 100 µM (inactive). Further, the GI50 was > 100 µM (inactive) with Malme-3M; 28.7 µM (inactive) in the experiment with MOLT-4; > 100 µM (inactive) in the experiment on SN12C; > 100 µM (inactive) in the experiment on UO-31; > 100 µM (inactive) in the experiment on NCI-H226; 46.3 µM (inactive) with NCI-H522. For the same molecule, the figures for the GI50 in the experiment with HL-60, in the experiment on SW-620 and with CCRF-CEM were 39.2 µM (inactive), 76 µM (inactive) and 32.3 µM (inactive), respectively.

In the case of `COc1cc2cccc(/N=C\c3cccc(OC)c3OC(C)C)c2cc1OC`, the GI50 in the experiment on OVCAR-8 was 21.5 µM (inactive); in the experiment on CAKI-1, 24 µM (inactive); with A549, 29.7 µM (inactive); with HT-29, 23.2 µM (inactive); in the experiment with A498 it was 56.9 µM (inactive); in the experiment with RPMI-8226, 13.2 µM (inactive). Besides, the GI50 with U-251 was 19.7 µM (inactive); with Malme-3M, 22.3 µM (inactive); in the experiment with MOLT-4, 19.1 µM (inactive); with SN12C, 40.1 µM (inactive); in the experiment with UO-31 it was 30.1 µM (inactive); with NCI-H522, 17.9 µM (inactive). In addition, the GI50 in the experiment on SW-620 is 21 µM (inactive); in the experiment on CCRF-CEM it was 21.2 µM (inactive).

As to `O=[N+]([O-])c1ccc(C2=Nn3c(nnc3-c3ccccc3)SC2)o1`, the GI50 is 19.3 µM (inactive) in the experiment with OVCAR-8; 19.9 µM (inactive) with CAKI-1; 35.2 µM (inactive) in the experiment with A549; 23.7 µM (inactive) in the experiment on HT-29; > 100 µM (inactive) in the experiment on A498; 5.81 µM (inactive) in the experiment on RPMI-8226. In addition, the GI50 with HCT-15 was 16.1 µM; in the experiment on U-251 it was 17.4 µM (inactive); in the experiment on Malme-3M, 24.1 µM (inactive); in the experiment on MOLT-4, 24.3 µM (inactive); in the experiment on SN12C it was 15.7 µM (inactive); in the experiment on NCI-H226, 58.6 µM (inactive). Further, the GI50 is 15.3 µM (inactive) in the experiment on HL-60, 18 µM (inactive) in the experiment with SW-620 and 3.6 µM (inactive) in the experiment with CCRF-CEM.
